The values that follow come from patent US6964856B2, “Animal models and methods for sepsis” (priority 1999, dated 2005).

In this assay the test system is luminescent Pseudomonas aeruginosa. Put plainly: LD50 of luminescent Pseudomonas aeruginosa in mice, effect of anesthesia or adjuvant on virulence. It counts as in vivo. The following applies: Ketamine-sedated mice; non-anesthetized mice: approximately 2.5×10^6 CFU. The text has this:
One of the factors typically determined in the calibration process is a suitable dose of pathogen for the selected model system of sepsis. This dose is preferably based on the LD50 of the pathogen in the particular animal model of sepsis being used. The LD50, or “Lethal Dose 50”, is a measure for quantifying the effects of a perturbation (e.g., a test compound, procedure, or bacterial infection) on a biological system. It represents the 50% mortality point—that is, the concentration or level of a particular perturbation at which half of the animals die by the end of the experiment.
The LD50 may change depending on the experimental parameters. The measure is therefore expressed as an LD50 for a given experimental system. By way of example, it was discovered in the course of experiments performed in support of the present invention that the type of anesthesia used to prepare the animals for imaging can have a significant effect on the LD50. Specifically, it was discovered that anesthesia induced by injectable Ketamine may potentiate the virulence of some pathogens.
For example, it was found during experiments performed in support of the present invention that pathogen virulence is boosted by administration of 5% (by volume) hog gastric mucin to the host. […]

In the case of `CNC1(c2ccccc2Cl)CCCCC1=O` (stereo not shown) [Ketamine], the “LD50 of luminescent Pseudomonas aeruginosa” value is given as ~4.6×10^5 CFU.
